According to patent US11337964B2, “Isoindoline derivative, pharmaceutical composition and use thereof” (Kangpu Biopharmaceuticals, Ltd., priority 2017, dated 2022):

Assays:
Format in all cases: biochemical
Details in all cases: FAM-cAMP substrate, 30 minutes at room temperature
[1] = target: T1, PDE4A1A (Homo sapiens, UniProt P27815); assay: PDE4 activity inhibition assay, PDE4A1A
T1 construct: purchased BPS 60040
Method: (§1) The IC50 value of the inhibitory effect of the compound on PDE4A1A, PDE4B1 and PDE4D3 was tested.
(§2) Positive compound: Trequinsin (Sigma, Cat. No. T2057).
(§3) Equipment: Wallac Victor Multi-label counter (Perkin Elmer).
(§4) I. Preparing 1× reaction liquid and termination liquid;
(§5) II. PDE enzymatic reaction; • 1) The PDE was dissolved in 1× reaction solution to form 2× enzyme solution. • 2) FAM-cAMP was dissolved in 1× reaction solution to form 2× substrate solution. • 3) Echo 550 was used to transfer the corresponding volume of the compound in DMSO solution to the reaction plate. • 4) 2× enzyme solution was added into the corresponding well of the reaction plate and incubated with the compound solution at room temperature for 15 minutes. • 5) 2× substrate solution was added into the corresponding well of the reaction plate to initiate the reaction. • 6) Reaction plate was incubated at room temperature for 30 minutes and terminated by adding termination liquid, then incubated at room temperature for 60 minutes.
(§6) The inhibition rate was calculated by Excel; IC50 was calculated by GraphPad Prism.

[2] = target: T2, PDE4B1 (Homo sapiens, UniProt Q07343); assay: PDE4 activity inhibition assay, PDE4B1
T2 construct: purchased BPS 60041
Method: as §1, §2, §3, §4, §5, §6

[3] = target: T3, PDE4D3 (Homo sapiens, UniProt Q08499); assay: PDE4 activity inhibition assay, PDE4D3
T3 construct: purchased BPS 60046
Method: as §1, §2, §3, §4, §5, §6

T1 sequence (P27815 1-647 isoform P27815-4): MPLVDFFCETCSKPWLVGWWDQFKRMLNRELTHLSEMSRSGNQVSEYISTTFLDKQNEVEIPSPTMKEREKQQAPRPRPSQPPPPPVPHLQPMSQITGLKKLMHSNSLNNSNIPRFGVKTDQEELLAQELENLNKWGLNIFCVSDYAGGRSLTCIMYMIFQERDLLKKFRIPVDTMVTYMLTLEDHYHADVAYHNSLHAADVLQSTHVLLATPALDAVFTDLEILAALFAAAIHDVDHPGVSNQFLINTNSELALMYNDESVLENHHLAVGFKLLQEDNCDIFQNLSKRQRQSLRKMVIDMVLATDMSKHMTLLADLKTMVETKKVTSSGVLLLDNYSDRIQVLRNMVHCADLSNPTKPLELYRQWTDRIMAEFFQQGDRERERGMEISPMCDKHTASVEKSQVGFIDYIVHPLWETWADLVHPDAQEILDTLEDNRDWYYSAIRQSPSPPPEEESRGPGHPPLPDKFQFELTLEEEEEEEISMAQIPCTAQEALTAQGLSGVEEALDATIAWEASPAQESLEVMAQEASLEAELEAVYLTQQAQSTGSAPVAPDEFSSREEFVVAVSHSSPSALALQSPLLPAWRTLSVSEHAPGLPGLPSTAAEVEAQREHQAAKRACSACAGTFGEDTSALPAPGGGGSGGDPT
T2 sequence (Q07343 whole entry): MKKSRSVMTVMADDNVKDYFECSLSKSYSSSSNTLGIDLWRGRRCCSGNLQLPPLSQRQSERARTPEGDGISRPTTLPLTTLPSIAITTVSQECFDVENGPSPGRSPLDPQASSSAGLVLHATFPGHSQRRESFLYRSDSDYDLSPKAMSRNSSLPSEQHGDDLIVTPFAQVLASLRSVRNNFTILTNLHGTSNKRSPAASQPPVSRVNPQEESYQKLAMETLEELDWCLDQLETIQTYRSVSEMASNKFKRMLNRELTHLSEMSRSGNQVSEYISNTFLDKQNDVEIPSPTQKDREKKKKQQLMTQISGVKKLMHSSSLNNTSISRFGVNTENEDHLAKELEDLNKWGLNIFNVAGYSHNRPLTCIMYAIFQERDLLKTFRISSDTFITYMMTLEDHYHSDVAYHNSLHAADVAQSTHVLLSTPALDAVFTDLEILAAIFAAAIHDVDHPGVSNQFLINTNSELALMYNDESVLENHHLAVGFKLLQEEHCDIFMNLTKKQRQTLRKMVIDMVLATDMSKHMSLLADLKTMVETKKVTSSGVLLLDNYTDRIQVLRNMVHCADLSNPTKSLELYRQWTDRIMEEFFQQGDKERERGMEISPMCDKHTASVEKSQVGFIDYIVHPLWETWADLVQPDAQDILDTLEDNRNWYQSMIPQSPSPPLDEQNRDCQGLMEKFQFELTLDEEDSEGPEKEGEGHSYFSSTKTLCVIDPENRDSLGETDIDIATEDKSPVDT
T3 sequence (Q08499 1-673 isoform Q08499-2): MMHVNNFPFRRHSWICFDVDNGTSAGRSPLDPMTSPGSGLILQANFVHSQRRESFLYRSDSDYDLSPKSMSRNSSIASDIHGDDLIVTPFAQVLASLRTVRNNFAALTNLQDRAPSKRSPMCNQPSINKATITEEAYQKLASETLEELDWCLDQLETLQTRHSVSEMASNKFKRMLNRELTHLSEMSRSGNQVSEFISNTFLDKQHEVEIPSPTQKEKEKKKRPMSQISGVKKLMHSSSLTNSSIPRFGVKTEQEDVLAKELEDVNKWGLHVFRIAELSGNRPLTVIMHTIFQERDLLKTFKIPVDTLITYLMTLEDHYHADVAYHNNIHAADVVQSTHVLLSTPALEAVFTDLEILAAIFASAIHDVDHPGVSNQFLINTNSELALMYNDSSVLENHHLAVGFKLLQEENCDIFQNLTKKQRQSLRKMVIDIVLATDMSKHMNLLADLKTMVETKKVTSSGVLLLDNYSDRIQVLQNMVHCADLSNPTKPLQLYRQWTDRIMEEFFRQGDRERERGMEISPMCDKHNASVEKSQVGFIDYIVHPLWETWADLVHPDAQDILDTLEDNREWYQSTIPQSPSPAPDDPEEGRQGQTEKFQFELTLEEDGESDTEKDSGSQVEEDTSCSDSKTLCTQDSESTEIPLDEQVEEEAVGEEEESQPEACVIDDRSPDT

Row | IC50 [1] [nM] | IC50 [2] [nM] | IC50 [3] [nM] | Structure (SMILES)
1 | 123 | 165 | 79 | [2H]C([2H])([2H])Oc1ccc([C@@H](CS(C)(=O)=O)N2C(=O)c3cc(F)cc(NC(C)=O)c3C2=O)cc1OC([2H])([2H])[2H] [Compound 205, (S)—N-(2-(1-(3,4-d6-dimethoxyphenyl)-2-(methylsulfonyl)ethyl)-6-fluoro-1,3-dioxoisoindolin-4-yl)acetamide]
2 | 2.4 | 6.2 | 2.6 | CCOc1nc(C(CS(C)(=O)=O)N2C(=O)c3cccc(NC(=O)COCc4ccccc4)c3C2=O)ccc1OC (stereo not drawn) [Compound 742, 2-(benzyloxy)-N-(2-(1-(6-ethoxy-5-methoxypyridin-2-yl)-2-(methylsulfonyl)ethyl)-1,3-dioxoisoindolin-4-yl)acetamide]
3 | 8.3 | 12 | 4.6 | [2H]C([2H])([2H])Oc1ccc([C@@H](CS(C)(=O)=O)N2C(=O)c3c(F)ccc(NC(C)=O)c3C2=O)cc1OC([2H])([2H])C([2H])([2H])[2H] [Compound 107, (S)—N-(2-(1-(3-d5-ethoxy-4-d3-methoxyphenyl)-2-(methylsulfonyl)ethyl)-7-fluoro-1,3-dioxoisoindolin-4-yl)acetamide]
4 | 32.1 | 93 | 33.5 | [2H]C([2H])([2H])Oc1ccc([C@H](CS(C)(=O)=O)N2C(=O)c3cc(F)cc(NC(C)=O)c3C2=O)nc1OCC [Compound 725, (R)—N-(2-(1-(6-ethoxy-5-d3-methoxypyridin-2-yl)-2-(methylsulfonyl)ethyl)-6-fluoro-1,3-dioxoisoindolin-4-yl)acetamide]
5 | 11 | 14 | 7.4 | CCOc1cc([C@@H](CS(C)(=O)=O)N2C(=O)c3c(F)ccc(NC(C)=O)c3C2=O)ccc1OC [Compound 102, (S)—N-(2-(1-(3-ethoxy-4-methoxyphenyl)-2-(methylsulfonyl)ethyl)-7-fluoro-1,3-dioxoisoindolin-4-yl)acetamide]
6 | 20 | 20 | 12 | [2H]C([2H])([2H])Oc1ccc([C@@H](CS(C)(=O)=O)N2C(=O)c3cc(F)cc(NC(C)=O)c3C2=O)cc1OC([2H])([2H])C([2H])([2H])[2H] [Compound 207, (S)—N-(2-(1-(3-d5-ethoxy-4-d3-methoxyphenyl)-2-(methylsulfonyl)ethyl)-6-fluoro-1,3-dioxoisoindolin-4-yl)acetamide]
7 | 51.8 | 136 | 35.9 | CCOc1nc(C(CS(C)(=O)=O)N2C(=O)c3cccc(NS(C)(=O)=O)c3C2=O)ccc1OC (stereo not drawn) [Compound 737, N-(2-(1-(6-ethoxy-5-methoxypyridin-2-yl)-2-(methylsulfonyl)ethyl)-1,3-dioxoisoindolin-4-yl)methanesulfonamide]
8 | 6 | 17.3 | 5.7 | CCOc1cc([C@@H](CS(C)(=O)=O)N2C(=O)c3c(C#N)ccc(NC(C)=O)c3C2=O)ccc1OC [Compound 115, (S)—N-(7-cyano-2-(l 1-(3-ethoxy-4-methoxyphenyl)-2-(methylsulfonyl)ethyl)-1,3-dioxoisoindolin-4-yl)acetamide]
9 | 2.3 | 5.7 | 3.1 | [2H]C([2H])([2H])Oc1ccc([C@@H](CS(C)(=O)=O)N2C(=O)c3cc(F)cc(NC(C)=O)c3C2=O)nc1OCC [Compound 724, (S)—N-(2-(1-(6-ethoxy-5-d3-methoxypyridin-2-yl)-2-(methylsulfonyl)ethyl)-6-fluoro-1,3-dioxoisoindolin-4-yl)acetamide]
10 | 0.8 | 2.4 | 1.1 | CCOc1nc([C@@H](CS(C)(=O)=O)N2C(=O)c3c(C#N)ccc(NC(C)=O)c3C2=O)ccc1OC [Compound 732, (S)—N-(7-cyano-2-(1-(6-ethoxy-5-methoxypyridin-2-yl)-2-(methylsulfonyl)ethyl)-1,3-dioxoisoindolin-4-yl)acetamide]
11 | 1.1 | 5.1 | 2 | [2H]C([2H])([2H])Oc1ccc([C@@H](CS(C)(=O)=O)N2C(=O)c3cccc(NC(C)=O)c3C2=O)nc1OCC [Compound 711, (S)—N-(2-(1-(6-ethoxy-5-d3-methoxypyridin-2-yl)-2-(methylsulfonyl)ethyl)-1,3-dioxoisoindolin-4-yl)acetamide]
12 | 53 | 70 | 31 | [2H]C([2H])([2H])Oc1ccc([C@H](CS(C)(=O)=O)N2C(=O)c3c(F)ccc(NC(C)=O)c3C2=O)cc1OCC [Compound 104, (R)—N-(2-(1-(3-ethoxy-4-d3-methoxyphenyl)-2-(methylsulfonyl)ethyl)-7-fluoro-1,3-dioxoisoindolin-4-yl)acetamide]
13 | 3.1 | 4.7 | 1.3 | CCOc1nc(C(CS(C)(=O)=O)N2C(=O)c3cccc(NC(=O)CC(C)C)c3C2=O)ccc1OC (stereo not drawn) [Compound 760, N-(2-(1-(6-ethoxy-5-methoxypyridin-2-yl)-2-(methylsulfonyl)ethyl)-1,3-dioxoisoindolin-4-yl)-3-methylbutanamide]
14 | 2.1 | 5.1 | 1.3 | [2H]C([2H])([2H])Oc1ccc([C@@H](CS(C)(=O)=O)N2C(=O)c3c(Cl)ccc(NC(C)=O)c3C2=O)cc1OCC [Compound 113, (S)—N-(7-chloro-2-(1-(3-ethoxy-4-d3-methoxyphenyl)-2-(methylsulfonyl)ethyl)-1,3-dioxoisoindolin-4-yl)acetamide]
15 | 102 | 116 | 65 | CCOc1cc(C(CS(C)(=O)=O)N2C(=O)c3ccc(F)c(NC(C)=O)c3C2=O)ccc1OC (stereo not drawn) [Compound 301, N-(2-(1-(3-ethoxy-4-methoxyphenyl)-2-(methylsulfonyl)ethyl)-5-fluoro-1,3-dioxoisoindolin-4-yl)acetamide]
16 | 14.5 | 36.3 | 10.9 | CCOc1nc(C(CS(C)(=O)=O)N2C(=O)c3cccc(NC(=O)CO)c3C2=O)ccc1OC (stereo not drawn) [Compound 739, N-(2-(1-(6-ethoxy-5-methoxypyridin-2-yl)-2-(methylsulfonyl)ethyl)-1,3-dioxoisoindolin-4-yl)-2-hydroxyacetamide]
17 | 2.5 | 3.5 | 2.1 | CCOc1nc(C(CS(C)(=O)=O)N2C(=O)c3cccc(NC(C)=O)c3C2=O)ccc1OC (stereo not drawn) [Compound 701, N-(2-(1-(6-ethoxy-5-methoxypyridin-2-yl)-2-(methylsulfonyl)ethyl)-1,3-dioxoisoindolin-4-yl)acetamide]
18 | 1.6 | 1.9 | 1 | CCOc1nc([C@@H](CS(C)(=O)=O)N2C(=O)c3c(F)ccc(NC(=O)C4CC4)c3C2=O)ccc1OC [Compound 764, (S)—N-(2-(1-(6-ethoxy-5-methoxypyridin-2-yl)-2-(methylsulfonyl)ethyl)-7-fluoro-1,3-dioxoisoindolin-4-yl)cyclopropanecarboxamide]
19 | 1.6 | 1.8 | 1.5 | CCOc1nc([C@@H](CS(C)(=O)=O)N2C(=O)c3cccc(NC(=O)C4CC4)c3C2=O)ccc1OC [Compound 770, (S)—N-(2-(1-(6-ethoxy-5-methoxypyridin-2-yl)-2-(methylsulfonyl)ethyl)-1,3-dioxoisoindolin-4-yl)cyclopropanecarboxamide]
20 | 32.6 | 82.8 | 29 | [2H]C([2H])([2H])Oc1ccc([C@H](CS(C)(=O)=O)N2C(=O)c3cccc(NC(C)=O)c3C2=O)nc1OCC [Compound 712, (R)—N-(2-(1-(6-ethoxy-5-d3-methoxypyridin-2-yl)-2-(methylsulfonyl)ethyl)-1,3-dioxoisoindolin-4-yl)acetamide]
21 | 17 | 32 | 11 | CCOc1nc([C@H](CS(C)(=O)=O)N2C(=O)c3cc(F)cc(NC(C)=O)c3C2=O)ccc1OC [Compound 709, (R)—N-(2-(1-(6-ethoxy-5-methoxypyridin-2-yl)-2-(methylsulfonyl)ethyl)-6-fluoro-1,3-dioxoisoindolin-4-yl)acetamide]
22 | 0.6 | 1.6 | 0.4 | CCOc1nc(C(CS(C)(=O)=O)N2C(=O)c3c(Cl)ccc(NC(C)=O)c3C2=O)ccc1OC (stereo not drawn) [Compound 728, N-(7-chloro-2-(1-(6-ethoxy-5-methoxypyridin-2-yl)-2-(methylsulfonyl)ethyl)-1,3-dioxoisoindolin-4-yl)acetamide]
23 | 10.6 | 21.9 | 8 | CCOc1nc(C(CS(C)(=O)=O)N2C(=O)c3cccc(NC(=O)CN(C)C)c3C2=O)ccc1OC (stereo not drawn) [Compound 754, 2-(dimethylamino)-N-(2-(1-(6-ethoxy-5-methoxypyridin-2-yl)-2-(methylsulfonyl)ethyl)-1,3-dioxoisoindolin-4-yl)acetamide]
24 | 182 | 211 | 110 | CCOc1cc(C(CS(C)(=O)=O)N2C(=O)c3ccnc(NC(C)=O)c3C2=O)ccc1OC (stereo not drawn) [Compound 401, N-(2-(1-(3-ethoxy-4-methoxyphenyl)-2-(methylsulfonyl)ethyl)-1,3-dioxo-2,3-dihydro-1H-pyrrolo[3,4-c]pyridin-4-yl)acetamide]
